Patent US6541492B1, “Thiazole derivatives as PPAR gamma ligands” (SmithKline Beecham Corporation, priority 1999, dated 2003)

Key:
[1] = tested on: C3H10T1/2 clone 8 murine fibroblasts; experiment: Osteoblast differentiation assay (alkaline phosphatase activity); format: cell-based
Experimental: C3H10T1/2 clone 8 murine fibroblasts (American Type Culture Collection) below passage 22 were maintained in Dulbecco's modified Eagle's medium (Life Technologies, Inc.) supplemented with 10% fetal calf serum and 100 units/mL penicillin G and 100 microgram/mL streptomycin. One day after passage into 96-well microtiter plates (12.5×10^3 cells/cm^2), the cells were treated with 625 nanomolar all-trans retinoic acid, 1 micromolar rosiglitazone and 1 micromolar insulin (Sigma, St. Louis, Mo.). Vehicle or test compounds, which had been solublized to 10 mM in DMSO and then serially diluted from 2e-5 M to 4e-8 M into medium, were added. After 7 days, alkaline phosphatase activity, a surrogate measure for osteogenesis, was determined using Sigma-Fast pNPP substrate (N-2770) according to the manufacturer's specifications (Sigma, St. Louis, Mo.) (see Paulik, M. A. and Lenhard, J. M., Cell Tissue Res., (1997), Vol. 290, pp 79-87). The substrate (50 microliters/well) was incubated with the cells at 37° C. for 10 min and the absorbance read at 405 nm. The % maximum stimulation of alkaline phosphatase activity was calculated relative to cells treated with 10 micromolar all-trans retinoic acid.

C57BL/KsJ db/db mice = experiment: In vivo assay in db/db mice; conditions: male db/db mice, 50 mg/kg oral once daily, mean ± standard error
Experimental: Age and weight matched male C57BL/KsJ db/db mice (Jackson Labs, Bar Harbor, Me.) were housed 5 animals/cage at 72° F. and 50% relative humidity with a 12 h light and dark cycle, and fed chow diet (NIH R&M/Auto 6F-Ovals 5K67, PMI Feeds® Inc., Richmond, Ind.). Animals starting at 6 weeks of age were orally gavaged once daily (8:00-9:00 AM) with TPGS/PG (25/75) or 50 mg/kg the compound of Example 4 in TPGS/PG (25/75). After 2 weeks of dosing, the animals were anesthetized with isofluorane, blood was drawn by cardiac puncture, and non-fasting measurements of glucose, insulin, and glycosylated hemoglobin (GHB) were obtained. Blood glucose was determined using an automated chemistry analyzer (Technicon Axon). GHB measurements were performed using a Columnmate Analyzer (Helena Instrument). Insulin concentrations in serum were measured by chemiluminescence using an Origen Analyzer (Igen Inc.). Body weights were recorded at the beginning and end of the study. All data was calculated as the mean and standard error from experiments performed on ≧9 animals per treatment group.

% Stimulation ([1]; % maximum stimulation of alkaline phosphatase activity relative to cells treated with 10 micromolar all-trans retinoic acid): 71%
pEC50 ([1]; alkaline phosphatase activity after 7 days, with 625 nanomolar all-trans retinoic acid, 1 micromolar rosiglitazone, 1 micromolar insulin): 5.7
Compound: CCCCCC[C@@H]1S[C@@H](CC(=O)N(CCCC)CCCC)C(=O)N1CCCCc1ccc(C(=O)O)cc1 (relative stereo) [Example 4, (2S*,5S*)-4-(4-(4-Carboxyphenyl)butyl)-2-hexyl-4-oxo-5-thiazolidine N,N-Dibutylacetamide]
GBH (C57BL/KsJ db/db mice; glycosylated hemoglobin, 2 weeks): 6.6 ± 0.3%
Glucose (C57BL/KsJ db/db mice; 2 weeks, non-fasting blood): 380 ± 30 mg/dL
Body Weight Change (C57BL/KsJ db/db mice; beginning to end of 2 week study): 1.1 ± 0.5 g
